Results on four compounds are retold here after EP0908457B1, “3-(1,2-benzisothiazol- and isoxazol-5-Y1)-2,4(1H,3H)-pyrimidinedione or thione and 3-(1,2-benzisothiazol- and isoxazol-5-y1)-4(3H)-pyrimidinone or thione herbicidal agents” (BASF AKTIENGESELLSCHAFT, priority 1997, dated 1999).

Data set [1] deals with Echinochloa oryzoides (Ard.) Fritsch. In words: Preemergence weed control under flooded paddy conditions, ECHORC (Watergrass (Calif.)). For herbicidal effect rating, ECHORC: meaning of each grade not given here. The format is in vivo. As to conditions: flooded paddy; for herbicidal effect rating, ECHORC: preemergence; for ECHORC: preemergence weeds, herbicidal effect rating 0-9, three to four weeks after treatment.
The subject of data set [2] is Cyperus iria. In words: Preemergence weed control under flooded paddy conditions, CYPIR (Rice Flatsedge). For herbicidal effect rating, CYPIR: meaning of each grade not given here. The format is in vivo. The settings on record: flooded paddy; for herbicidal effect rating, CYPIR: preemergence; for CYPIR: preemergence weeds, herbicidal effect rating 0-9, three to four weeks after treatment.
The subject of data set [3] is Cyperus serotinus, Rottb. In words: Preemergence weed control under flooded paddy conditions, CYPSE (Flatsedge). For herbicidal effect rating, CYPSE: meaning of each grade not given here. Format: in vivo. The settings on record: for herbicidal effect rating, CYPSE: preemergence; for CYPSE: preemergence weeds, herbicidal effect rating 0-9, three to four weeks after treatment.
In data set [4] the test system is Sagittaria pygmaea, L. Description: Preemergence weed control under flooded paddy conditions, SAGPY (Arrowhead (Pygmaea)). For herbicidal effect rating, SAGPY: meaning of each grade not given here. The settings on record: flooded paddy; for herbicidal effect rating, SAGPY: preemergence; for SAGPY: preemergence weeds, herbicidal effect rating 0-9, three to four weeks after treatment. The format is in vivo.
For data set [5], the system named is Monochoria vaginalis, Presl. Description: Preemergence weed control under flooded paddy conditions, MOOVA (Monochoria). For herbicidal effect rating, MOOVA: meaning of each grade not given here. The format is in vivo. As to conditions: flooded paddy; for herbicidal effect rating, MOOVA: preemergence; for MOOVA: preemergence weeds, herbicidal effect rating 0-9, three to four weeks after treatment.
The test system of data set [6] is Oryza sativa, (L.) Tebonnet. Description: Rice tolerance to post-transplant applications under flooded paddy conditions (Example 187), ORYSAT (Rice, Tebonnet). For herbicidal effect rating ORYSAT: meaning of each grade not given here. The settings on record: for ORYSAT: herbicidal effect rating 0-9, three to four weeks after treatment.
[7] abbreviates: Rate 0.0320 kg/ha, rated three to four weeks after treatment.
Setting [8] is: Rate 0.0620 kg/ha, rated three to four weeks after treatment.
Setting [9] is: Rate 0.1250 kg/ha, rated three to four weeks after treatment.
Where [10] appears, read: Rate 0.2500 kg/ha, rated three to four weeks after treatment.
Where [11] appears, read: Rate 0.0320 kg/ha, rated 3-4 weeks after treatment.
The mark [12] stands for this setting: Rate 0.0620 kg/ha, rated 3-4 weeks after treatment.
Where [13] appears, read: Rate 0.1250 kg/ha, rated 3-4 weeks after treatment.
[14] abbreviates: Rate 0.2500 kg/ha, rated 3-4 weeks after treatment.
The mark [15] stands for this setting: 0.0313 kg/ha, rated three to four weeks after treatment.
[16] abbreviates: 0.0625 kg/ha, rated three to four weeks after treatment.
[17] abbreviates: 0.1250 kg/ha, rated three to four weeks after treatment.
Where [18] appears, read: 0.2500 kg/ha, rated three to four weeks after treatment.

As to `CCCCS(=O)(=O)NC(=O)C(C)Oc1ccc(C)cc1-c1nsc2ccc(-n3c(=O)cc(C(F)(F)F)n(C)c3=O)cc12` (stereo not shown) [Example 575, Propionamide, N-(butylsulfonyl)-2-{{2-{5-[3,6-dihydro-3-methyl-2,6-dioxo-4-(trifluoromethyl)-1(2H)-pyrimidinyl]-1,2-benzisothiazol-3-yl}-p-tolyl}oxy}-], the “herbicidal effect rating, ECHORC” value in data set [1] (setting [7]) is 2.0; in data set [1] (setting [8]) it was 5.0; in data set [1] (setting [9]) it was 6.0; in data set [1] (setting [10]), 9.0. The “herbicidal effect rating, CYPIR” value came out at 0.0 in data set [2] (setting [7]), 0.0 in data set [2] (setting [8]), 4.0 in data set [2] (setting [9]) and 6.0 in data set [2] (setting [10]). Further, the “herbicidal effect rating, CYPSE” value in data set [3] (setting [7]) was 0.0; in data set [3] (setting [8]) it was 0.0; in data set [3] (setting [9]) it was 0.0; in data set [3] (setting [10]), 2.0. Besides, the “herbicidal effect rating, SAGPY” value in data set [4] (setting [7]) is 0.0; in data set [4] (setting [8]), 0.0; in data set [4] (setting [9]), 0.0; in data set [4] (setting [10]), 3.0. Moreover, the “herbicidal effect rating, MOOVA” value in data set [5] (setting [7]) stood at 4.0; in data set [5] (setting [8]), 4.0; in data set [5] (setting [9]), 9.0; in data set [5] (setting [10]), 9.0. The “herbicidal effect rating ORYSAT” value in data set [6] (setting [7]) is 0.0; in data set [6] (setting [8]), 0.0; in data set [6] (setting [9]), 0.0; in data set [6] (setting [10]) it was 2.0.

As to `Cc1ccc(OCC(=O)NS(C)(=O)=O)c(-c2noc3cc(F)c(-n4c(=O)cc(C(F)(F)F)n(C)c4=O)cc23)c1` [Example 428, Acetamide, 2-{{2-{5-[3,6-dihydro-3-methyl-2,6-dioxo-4-(trifluoromethyl)-1(2H)-pyrimidinyl]-6-fluoro-1,2-benzisoxazol-3-yl}-p-tolyl}oxy}-N-(methylsulfonyl)-], the ECHORC in data set [1] (0.0320 kg/ha) is recorded as 2.0; in data set [1] (0.0620 kg/ha), 3.0; in data set [1] (0.1250 kg/ha) it was 6.0; in data set [1] (0.2500 kg/ha), 9.0. For the same compound, the CYPIR in data set [2] (0.0320 kg/ha) was 0.0; in data set [2] (0.0620 kg/ha) it was 2.0; in data set [2] (0.1250 kg/ha), 4.0; in data set [2] (0.2500 kg/ha) it was 7.0. The CYPSE in data set [3] (0.0320 kg/ha) and in data set [3] (0.0620 kg/ha) was 0.0 throughout. Besides, the SAGPY in data set [4] (0.0320 kg/ha) is recorded as 0.0; in data set [4] (0.0620 kg/ha), 0.0; in data set [4] (0.1250 kg/ha), 2.0; in data set [4] (0.2500 kg/ha) it was 6.0. Further, the MOOVA in data set [5] (0.0320 kg/ha), in data set [5] (0.0620 kg/ha), in data set [5] (0.1250 kg/ha) and in data set [5] (0.2500 kg/ha) was 9.0 in each case. Moreover, the ORYSAT in data set [6] (0.0320 kg/ha) was 0.0; in data set [6] (0.0620 kg/ha), 2.0; in data set [6] (0.1250 kg/ha), 6.0; in data set [6] (0.2500 kg/ha), 6.0.

On to `CCCCCCCCCOC(=O)COc1ccc(C)cc1-c1nsc2ccc(-n3c(=O)cc(C(F)(F)F)n(C)c3=O)cc12` [Example 519, Acetic acid, {{2-{5-[3,6-dihydro-3-methyl-2,6-dioxo-4-(trifluoromethyl)-1(2H)-pyrimidinyl]-1,2-benzisothiazol-3-yl}-p-tolyl}oxy}-, nonyl ester], for which the “herbicidal effect rating, ECHORC” value in data set [1] (setting [11]) amounted to 2.0; in data set [1] (setting [12]), 4.0; in data set [1] (setting [13]) it was 6.5; in data set [1] (setting [14]) it was 9.0. The “herbicidal effect rating, CYPIR” value amounted to 0.0 in data set [2] (setting [11]), 0.0 in data set [2] (setting [12]), 2.0 in data set [2] (setting [13]) and 6.0 in data set [2] (setting [14]). The “herbicidal effect rating, CYPSE” value in data set [3] (setting [11]), in data set [3] (setting [12]), in data set [3] (setting [13]) and in data set [3] (setting [14]) was 0.0 throughout. The “herbicidal effect rating, SAGPY” value in data set [4] (setting [11]), in data set [4] (setting [12]), in data set [4] (setting [13]) and in data set [4] (setting [14]) was 0.0 in each case. Besides, the “herbicidal effect rating, MOOVA” value in data set [5] (setting [11]), in data set [5] (setting [12]), in data set [5] (setting [13]) and in data set [5] (setting [14]) was 9.0 each time. The “herbicidal effect rating ORYSAT” value in data set [6] (setting [11]) was 2.0; in data set [6] (setting [12]), 4.0; in data set [6] (setting [13]), 4.5; in data set [6] (setting [14]), 4.0.

As to `COCc1nsc2ccc(-n3c(=O)cc(C(F)(F)F)n(C)c3=O)cc12` [Example 31, 3-[3-(Methoxymethyl)-1,2-benzisothiazol-5-yl]-1-methyl-6-(trifluoromethyl)-2,4(1H,3H)-pyrimidinedione], the “herbicidal effect rating, ECHORC” value in data set [1] (setting [15]) is 7.0; in data set [1] (setting [16]), 8.5; in data set [1] (setting [17]), 9.0; in data set [1] (setting [18]), 9.0. For the same compound, the “herbicidal effect rating, CYPIR” value in data set [2] (setting [15]), in data set [2] (setting [16]), in data set [2] (setting [17]) and in data set [2] (setting [18]) was 9.0 in each case. The “herbicidal effect rating, CYPSE” value in data set [3] (setting [15]) was determined as 7.0; in data set [3] (setting [16]), 7.0; in data set [3] (setting [17]) it was 8.0; in data set [3] (setting [18]), 9.0. Further, the “herbicidal effect rating, SAGPY” value was found to be 4.0 in data set [4] (setting [15]), 7.0 in data set [4] (setting [16]), 9.0 in data set [4] (setting [17]) and 9.0 in data set [4] (setting [18]). In addition, the “herbicidal effect rating, MOOVA” value in data set [5] (setting [15]), in data set [5] (setting [16]), in data set [5] (setting [17]) and in data set [5] (setting [18]) was 9.0 in each case. Moreover, the “herbicidal effect rating, ORYSAT (rice tolerance)” value in data set [6] (setting [15]) was 7.5; in data set [6] (setting [16]), 8.0; in data set [6] (setting [17]), 7.5; in data set [6] (setting [18]) it was 8.0.
